Laboratory results published in the supplement of paper PMC12420376.

How the values were obtained:
KURAMOCHI = assay: drug sensitivity score (DSS2) on cancer cell count; higher = more sensitive; extreme values may be limits of the assay; details: 72 h
In short: (§1)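 Screen quality was checked by Z', and a drug sensitivity score was derived in Breeze from logistic fits of the cancer cell counts. These counts were obtained by imaging at 10× (4 fields) after fixing and immunostaining for CK8/18 with Hoechst. Before that, ovarian cancer cells, alone or in 1:1 direct co-culture with lung or skin fibroblasts, had been treated for 72 h on 384-well plates acoustically pre-spotted with 528 approved and investigational compounds at 5 concentrations.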

OVCAR8 = assay: as above; details: 72 h
In short: as §1

[1] = co-cultured fibroblast: BJHTERT
[2] = co-cultured fibroblast: none (monoculture)

| Structure (SMILES) | drug sensitivity score (KURAMOCHI; [1]) [DSS] | drug sensitivity score (KURAMOCHI; co-cultured fibroblast: WI38) [DSS] | drug sensitivity score (KURAMOCHI; [2]) [DSS] | drug sensitivity score (OVCAR8; [1]) [DSS] | drug sensitivity score (OVCAR8; co-cultured fibroblast: WI38) [DSS] | drug sensitivity score (OVCAR8; [2]) [DSS] |
| --- | --- | --- | --- | --- | --- | --- |
| CCc1cnn2c(NCc3ccc[n+]([O-])c3)cc(N3CCCC[C@H]3CCO)nc12 [Dinaciclib] | 17.2 | 23.9 | 23 | 26.4 | 17.1 | 23.1 |
| C[C@@H]1COCCN1c1cc(C2([S@](C)(=N)=O)CC2)nc(-c2cc[nH]c3nccc2-3)n1 [AZD6738] | 10.4 | 8.6 | 10.9 | 11.1 | 4.4 | 8.1 |
| Clc1ccc(C(c2ccccc2Cl)C(Cl)Cl)cc1 (stereo unspecified) [Mitotane] | 0 | 0 | 0 | 0 | 0 | 0 |
| Clc1ccccc1C(c1ccccc1)(c1ccccc1)n1cccn1 [TRAM-34] | 0 | 0 | 0 | 0 | 0 | 0 |
| O=C(/C=C\n1cnc(-c2cc(C(F)(F)F)cc(C(F)(F)F)c2)n1)NNc1cnccn1 [Selinexor] | 17.1 | 21.8 | 25.3 | 22.4 | 24.3 | 27.1 |
| CN(C)C(=O)c1ccc(S(=O)(=O)c2ccc(NC(=O)[C@@](C)(O)C(F)(F)F)c(Cl)c2)cc1 [AZD7545] | 0.4 | 0 | 0 | 3.4 | 0 | 0.7 |
| O=C1CN2Cc3c(ccc(Cl)c3Cl)N=C2N1 [Anagrelide] | 0 | 0 | 0 | 0 | 11.9 | 0 |
| CC(=O)OC[C@H]1O[C@@H]([S-])[C@H](OC(C)=O)[C@@H](OC(C)=O)[C@@H]1OC(C)=O.CCP(CC)CC.[Au+] [Auranofin] | 9.3 | 7 | 8.1 | 12.1 | 8.8 | 7.3 |
| CC(C)NC(=O)COc1cccc(-c2nc(Nc3ccc4[nH]ncc4c3)c3ccccc3n2)c1 [KD025] | 1.2 | 1.3 | 0 | 5 | 8.3 | 0.3 |
| COc1ccc(-c2nc(N3CCOCC3)c3sc(CN(C)c4ncc(C(=O)NO)cn4)cc3n2)cn1 [CUDC-907] | 34.1 | 28.6 | 29.7 | 43.2 | 41.7 | 30 |
| CC(C)C[C@H](NC(=O)[C@@H](COC(C)(C)C)NC(=O)[C@H](Cc1ccc(O)cc1)NC(=O)[C@H](CO)NC(=O)[C@H](Cc1c[nH]c2ccccc12)NC(=O)[C@H](Cc1cnc[nH]1)NC(=O)[C@@H]1CCC(=O)N1)C(=O)N[C@@H](CCCNC(=N)N)C(=O)N1CCC[C@H]1C(=O)NNC(N)=O [Goserelin] | 0 | 0 | 0 | 0 | 0 | 0 |
| CNc1ncc2cc(-c3cc(NC(=O)NCCC(C)(C)C)c(F)cc3C)c(C)nc2n1 | 12.7 | 10.2 | 9.9 | 13.1 | 15.7 | 14.7 |
| CNC(=O)c1ccccc1Nc1cc(Nc2ccc(N3CCOCC3)cc2OC)ncc1C(F)(F)F [VS-4718] | 9 | 7.9 | 14.2 | 6.7 | 3.5 | 8.5 |
| Nc1cc(F)ccc1NC(=O)/C=C/c1cnn(C/C=C/c2ccccc2)c1 [RGFP966] | 3.9 | 6 | 4 | 1.6 | 0.6 | 4.4 |
| CNC(=O)c1ccc(C)c(-n2c(C)cc(OCc3ccc(F)cc3F)c(Br)c2=O)c1 | 0.6 | 0 | 14.9 | 0.9 | 0 | 0 |
| NC(=S)N/N=C/c1ncccc1N [Triapine] | 4.5 | 6.3 | 8.2 | 5.2 | 9.3 | 8.7 |
| C=C1C[C@@H]2CC[C@@]34C[C@H]5O[C@H]6[C@@H](O3)[C@H]3O[C@H](CC[C@@H]3O[C@H]6[C@H]5O4)CC(=O)C[C@@H]3[C@@H](OC)[C@@H](C[C@H](O)CN)O[C@H]3C[C@H]3O[C@@H](CC[C@@H]1O2)C[C@@H](C)C3=C [Eribulin] | 28.8 | 26.9 | 27.5 | 27.5 | 29.9 | 26.6 |
| O=C(Nc1cccc(Nc2ncc(Br)c(NCCc3cnc[nH]3)n2)c1)N1CCCC1 [BX-912] | 10.4 | 9.6 | 8.7 | 9.1 | 7.8 | 7.3 |
| CCN(CC)CCCC(C)Nc1c2ccc(Cl)cc2nc2ccc(OC)cc12 (stereo unspecified) [Mepacrine] | 13.8 | 13.8 | 19.1 | 19.8 | 14.2 | 14.4 |
| CC[C@@H]1C(=O)N(C)c2cnc(Nc3ccc(C(=O)N[C@H]4CC[C@H](N5CCN(CC6CC6)CC5)CC4)cc3OC)nc2N1C(C)C [Volasertib] | 16.4 | 17.9 | 21.4 | 26.5 | 21.5 | 24.7 |
| CN(C)C/C=C/C(=O)Nc1cc2c(Nc3ccc(F)c(Cl)c3)ncnc2cc1O[C@H]1CCOC1 [Afatinib] | 5.3 | 5 | 3.1 | 3.1 | 0 | 2.4 |
| O=C1CCC(N2C(=O)c3ccccc3C2=O)C(=O)N1 (stereo unspecified) [Thalidomide] | 0 | 0 | 0 | 0 | 0 | 0 |
| CC[C@@]1(O)C(=O)OCc2c1cc1n(c2=O)Cc2cc3c(CN(C)C)c(O)ccc3nc2-1 [Topotecan] | 20.9 | 25.7 | 28 | 22.2 | 23.1 | 30.4 |
| Nc1nc(OCc2cc(Br)cs2)c2[nH]cnc2n1 [Lomeguatrib] | 0 | 0 | 0 | 0 | 0.8 | 0 |
| CNC(=O)c1nn(C)c2c1C(C)(C)Cc1cnc(Nc3ccc(N4CCN(C)CC4)cc3)nc1-2 [Milciclib] | 11.2 | 9.8 | 10 | 13.9 | 12.3 | 11.4 |
| CO[C@@H](C)Cn1c(=O)n(C)c2cnc3ccc(-c4cncc(C(C)(C)O)c4)cc3c21 | 11.9 | 10.9 | 9.2 | 9.6 | 9.6 | 9.8 |
